From US8193189B2, “Quinoxaline derivatives as tyrosine kinase activity inhibitors” (Novartis AG, priority 2007, dated 2012)

What was measured:
GST-JAK1(866-1154) = biological target: T1, GST-JAK1(866-1154) (Homo sapiens, UniProt P23458); assay: EPK JAK-family kinases profiling assay (Caliper mobility shift), JAK1; format: biochemical; settings: ATP 40 μM, 50 nM kinase
T1 construct: GST-JAK1(866-1154); made in house
Method in brief: (§1)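 Turnover was read as substrate/product ratio after mobility-shift capillary-like separation of each reaction, run for 60 min at 30 °C with GST-tagged kinase domain, labelled peptide and ATP, and terminated with EDTA stop buffer.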

[1] = tested on: JAK/STAT pathway (JAK1/JAK2-dependent nuclear translocation of STAT1-GFP); assay: Inhibition of the JAK/STAT pathway: IFN-γ stimulated nuclear translocation of STAT1-GFP in HT1080 fibrosarcoma cells; format: cell-based; settings: Homo sapiens, HT-1080; HT1080 STAT1-GFP cells, 100 ng/ml IFN-γ 2 hours, compound added 30 min before; read-out: STAT1translo IC50
Source text: The medium-throughput (96-well format), robust and reproducible cellular assay can be routinely used to assess the functional activation of Janus Kinases (JAKs), based on the nuclear translocation of their substrate, Signal Transducer and Activator of Transcription (STAT). Nuclear translocation can be monitored in HT1080 fibrosarcoma cells stably transfected with STAT1 fused to Green Fluorescence Protein (GFP). Stimulation with interferon-γ (IFN-γ) results in JAK1/JAK2-dependent nuclear translocation of STAT1-GFP that can be quantified using the Cellomics Cyto/NucTrans software package. This assay may be used to provide an assessment of the nuclear-cytoplasmic differential (NCD) of GFP-STAT1 using Hoechst dye to define the boundaries of the nucleus.
Compounds can be dissolved in DMSO to a final stock concentration of 10 mM and stored as aliquots at 4° C. Compounds may be pre-diluted in 100% DMSO at 10 mM, 3 mM 1 mM, 0.3 mM, 0.1 mM, 0.03 mM, 0.01 mM and 0.003 mM. Subsequently, compounds may be diluted in medium and added in 50 μl to the cells. The final compound concentrations tested may be 10 μM, 3 μM 1 μM, 0.3 μM, 0.1 μM, 0.03 μM, 0.01 μM and 0.003 μM and the final DMSO concentration can be 0.1%.
The plates may then be washed once in PBS, and 200 μl PBS finally added per well. The plates, being finally covered with a black adhesive, may be either read directly or stored at 4° C. for later imaging. Where appropriate, the compounds may be added 30 min before stimulation with IFN-γ.
The plates can be read on a Cellomics® ArrayscanII automated fluorescence microscope plate reader equipped with a Mercury-Xenon white light illumination source and a Zeiss Axiovert inverted microscope, using the XF100 dichroic/emission filter cube and matching excitation filters, 10× magnification, and a 0.3 numerical aperture objective. Image acquisition and analysis can be performed using a customized protocol based on the ‘NuclearTranslocation’ Bioapplication (for details, see Appendices). For each well, multiple images (fields) can be acquired until a minimum of 1000 cells are counted using two 2 channels: Channel 1 (Hoechst)=focus+nuclear mask, Channel 2 (GFP)=signal quantification in mask areas as outlined below.
Nuclei may be first identified based on the Hoechst staining and a mask generated for each nucleus that then serves as a template to generate a circle (eroded inwards by 1 pixel) and a 3 pixel-wide collar-like ring (off-set outwards by 1 pixel), in which the nuclear and cytoplasmic intensity of GFP, respectively, are quantified in the corresponding channel. High content analysis yields numerous measurements per cell and the GPF intensity differential between the nuclear and the cytoplasmic masks may be chosen as a measure of sub-cellular GFP-STAT1 relocation. The resulting values may be averaged for all cells in the well to return a single measurement plus standard deviation.

GST-JAK2(808-1132) = biological target: T2, GST-JAK2(808-1132) (Homo sapiens, UniProt O60674); assay: EPK JAK-family kinases profiling assay (Caliper mobility shift), JAK2; format: biochemical; settings: ATP 20 μM, 1.8 nM kinase
T2 construct: GST-JAK2(808-1132); purchased Invitrogen (Carlsbad, USA) #4288
T2 sequence (O60674 808-1132): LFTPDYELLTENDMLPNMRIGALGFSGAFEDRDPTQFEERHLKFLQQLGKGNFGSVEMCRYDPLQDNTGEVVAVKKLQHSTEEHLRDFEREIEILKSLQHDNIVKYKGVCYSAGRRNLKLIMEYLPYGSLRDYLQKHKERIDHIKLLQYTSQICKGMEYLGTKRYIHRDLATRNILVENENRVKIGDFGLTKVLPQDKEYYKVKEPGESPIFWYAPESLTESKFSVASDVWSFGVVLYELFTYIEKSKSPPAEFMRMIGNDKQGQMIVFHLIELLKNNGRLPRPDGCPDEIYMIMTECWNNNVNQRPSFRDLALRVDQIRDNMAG
Method in brief: as §1

GST-JAK3(811-1124) = biological target: T3, GST-JAK3(811-1124) (Homo sapiens, UniProt P52333); assay: EPK JAK-family kinases profiling assay (Caliper mobility shift), JAK3; format: biochemical; settings: ATP 80 μM, 6 nM kinase
T3 construct: GST-JAK3(811-1124); made in house
T3 sequence (P52333 811-1124): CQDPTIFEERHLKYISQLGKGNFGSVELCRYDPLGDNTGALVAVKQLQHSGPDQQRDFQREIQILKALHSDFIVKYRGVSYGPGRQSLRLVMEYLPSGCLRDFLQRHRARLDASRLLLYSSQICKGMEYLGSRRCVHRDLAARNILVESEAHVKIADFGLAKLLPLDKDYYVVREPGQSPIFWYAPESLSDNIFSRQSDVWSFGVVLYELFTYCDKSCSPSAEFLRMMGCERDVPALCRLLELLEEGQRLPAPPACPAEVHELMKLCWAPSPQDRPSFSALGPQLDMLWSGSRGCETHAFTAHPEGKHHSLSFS
Method in brief: as §1

T1 sequence (P23458 866-1154): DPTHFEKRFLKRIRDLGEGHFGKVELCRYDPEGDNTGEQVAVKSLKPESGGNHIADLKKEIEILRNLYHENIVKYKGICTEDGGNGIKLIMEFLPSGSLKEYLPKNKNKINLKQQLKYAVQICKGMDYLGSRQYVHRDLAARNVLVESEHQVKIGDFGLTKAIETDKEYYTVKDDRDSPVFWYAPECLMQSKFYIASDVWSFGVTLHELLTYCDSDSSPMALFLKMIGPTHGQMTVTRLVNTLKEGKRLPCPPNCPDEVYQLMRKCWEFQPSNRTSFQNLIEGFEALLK

Row | IC50 (GST-JAK1(866-1154)) | IC50 [1] | IC50 (GST-JAK2(808-1132)) | IC50 (GST-JAK3(811-1124)) | SMILES
1 | 240 nM | 2180 nM | 15.5 nM | 860 nM | Cc1cc(-c2cnc3cccc(-c4ccc(CN5CCOCC5)c(F)c4)c3n2)ccc1C(=O)N1CCCC1 [Example 65, {4-[8-(3-Fluoro-4-morpholin-4-ylmethyl-phenyl)-quinoxalin-2-yl]-2-methyl-phenyl}-pyrrolidin-1-yl-methanone]
2 | 140 nM | 1000 nM | 6.05 nM | 250 nM | Cc1cc(-c2cnc3cccc(-c4cc(F)c(CN5CCOCC5)c(F)c4)c3n2)ccc1C(=O)N1CCCC1 [Example 66, {4-[8-(3,5-Difluoro-4-morpholin-4-ylmethyl-phenyl)-quinoxalin-2-yl]-2-methyl-phenyl}-pyrrolidin-1-yl-methanone]
3 | 96.5 nM | 475 nM | < 3 nM | 405 nM | Cc1cc(-c2cnc3cccc(-c4ccc(CN5CCS(=O)(=O)CC5)c(Cl)c4)c3n2)ccc1C(=O)N1CCCC1 [Example 67, (4-{8-[3-Chloro-4-(1,1-dioxido-thiomorpholin-4-ylmethyl)-phenyl]-quinoxalin-2-yl}-2-methyl-phenyl)-pyrrolidin-1-yl-methanone]
4 | 2300 nM | 4890 nM | 109 nM | 6850 nM | Cc1cc(-c2cnc3cccc(-c4ccc(C(=O)N5CCCC5)c(C)c4)c3n2)ccc1C(=O)N1CCCC1 [Example 68, (2-Methyl-4-{3-[3-methyl-4-(pyrrolidine-1-carbonyl)-phenyl]-quinoxalin-5-yl}-phenyl)-pyrrolidin-1-yl-methanone]
5 | 75 nM | 530 nM | 6.7 nM | 890 nM | Cc1cc(-c2cnc3cccc(-c4ccc(CC(=O)N5CCS(=O)(=O)CC5)c(F)c4)c3n2)ccc1CN1CCOCC1 [Example 69, 1-(1,1-Dioxido-thiomorpholin-4-yl)-2-{2-fluoro-4-[3-(3-methyl-4-morpholin-4-ylmethyl-phenyl)-quinoxalin-5-yl]-phenyl}-ethanone]
6 | 110 nM | 1120 nM | 5.7 nM | 670 nM | Cc1cc(-c2cnc3cccc(-c4ccc(CC(=O)N5CCS(=O)(=O)CC5)c(F)c4)c3n2)ccc1Cn1ccnc1 [Example 72, 1-(1,1-Dioxido-thiomorpholin-4-yl)-2-{2-fluoro-4-[3-(4-imidazol-1-ylmethyl-3-methyl-phenyl)-quinoxalin-5-yl]-phenyl}-ethanone]
7 | 190 nM | > 10000 nM | 28 nM | 370 nM | O=C(c1ccc(-c2cccc3ncc(-c4ccc(OCCCN5CCOCC5)cc4)nc23)cc1F)N1CCS(=O)(=O)CC1 [Example 73, (1,1-Dioxido-thiomorpholin-4-yl)-(2-fluoro-4-{3-[4-(3-morpholin-4-yl-propoxy)-phenyl]-quinoxalin-5-yl}-phenyl)-methanone]
8 | 310 nM | 2610 nM | 25 nM | 1300 nM | O=C(Cc1ccc(-c2cccc3ncc(-c4ccc(OCCCN5CCOCC5)cc4)nc23)cc1)N1CCOCC1 [Example 74, 1-Morpholin-4-yl-2-(4-{3-[4-(3-morpholin-4-yl-propoxy)-phenyl]-quinoxalin-5-yl}-phenyl)-ethanone]
9 | 410 nM | > 10000 nM | 34 nM | 1700 nM | O=C(c1ccc(-c2cccc3ncc(-c4ccc(OCCCN5CCOCC5)cc4)nc23)cc1F)N1CCOCC1 [Example 75, (2-Fluoro-4-{3-[4-(3-morpholin-4-yl-propoxy)-phenyl]-quinoxalin-5-yl}-phenyl)-morpholin-4-yl-methanone]
10 | 690 nM | 5990 nM | 59.5 nM | 4100 nM | Cc1cc(-c2cnc3cccc(-c4ccc(CC(=O)N5CCOCC5)c(F)c4)c3n2)ccc1OCCCN1CCOCC1 [Example 76, 2-(2-Fluoro-4-{3-[3-methyl-4-(3-morpholin-4-yl-propoxy)-phenyl]-quinoxalin-5-yl}-phenyl)-1-morpholin-4-yl-ethanone]
11 | 3800 nM | 1550 nM | 75 nM | 4550 nM | CCN1CCN(C(=O)c2ccc(-c3cnc4cccc(-c5ccc(C(C)(C)N6CCOCC6)c(C)c5)c4n3)cc2C)CC1 [Example 80, (4-Ethyl-piperazin-1-yl)-(2-methyl-4-{8-[3-methyl-4-(1-methyl-1-morpholin-4-yl-ethyl)-phenyl]-quinoxalin-2-yl}-phenyl)-methanone]
12 | 1150 nM | 389 nM | 16.5 nM | 780 nM | CCN1CCN(C(=O)c2ccc(-c3cnc4cccc(-c5ccc(C(C)(C)N6CCS(=O)(=O)CC6)c(C)c5)c4n3)cc2C)CC1 [Example 81, [4-(8-{4-[1-(1,1-Dioxido-thiomorpholin-4-yl)-1-methyl-ethyl]-3-methyl-phenyl}-quinoxalin-2-yl)-2-methyl-phenyl]-(4-ethyl-piperazin-1-yl)-methanone]
13 | 490 nM | 946 nM | 14 nM | 1250 nM | CCN1CCN(C(=O)c2ccc(-c3cnc4cccc(-c5cc(F)c(CN6CCOCC6)c(F)c5)c4n3)cc2C)CC1 [Example 82, {4-[8-(3,5-Difluoro-4-morpholin-4-ylmethyl-phenyl)-quinoxalin-2-yl]-2-methyl-phenyl}-(4-ethyl-piperazin-1-yl)-methanone]
